Earlier results as cited in patent US8541371B2, “Treatment of conditions related to cecal ligation shock” (The Regents of The University of California, priority 2009, dated 2013).

Tested on: shock
Settings: shock patients, approved treatment

Which survival benefit does the source give for drotrecogin alfa (activated) [XIGRIS] here?
Its survival benefit is “minor but confirmed survival benefit”.
